In US20080145412A1, “METHOD OF PROMOTING ANGIOGENESIS” (Acologix, Inc., priority 2006, published 2008):

Tests used:
FGF2 [1] = experiment: Angiogenesis antibody array (TranSignal Mouse Angiogenesis Antibody Array) of lysates from AC-100 treated calvariae; type: cell-based; settings: calvaria lysates
Source text: To investigate whether AC-100 modulates bone anabolic factors that are sequestered within the bone matrix we have analysed lysates from AC-100 treated calvariae.
Initial experiments analysed the lysates using an angiogenesis antibody array (TranSignal Mouse Angiogenesis Antibody Array, Panomics).

FGF-2 = FGF-2 production in mouse calvaria organ cultures (FIG. 1); type: cell-based; settings: tissue lysates and conditioned media
Experimental: AC-100 at both 1 and 10 uM concentrations increased the production of FGF-2 in mouse calvaria organ cultures. Increases were found in both tissue lysates and in the conditioned media of cultures treated with AC-100.

FGF2 [2] = experiment: ELISA timecourse of FGF2 in calvaria organ culture lysates and conditioned media (FIG. 2A); type: cell-based, mouse
Experimental: (§1) To quantitatively measure the increase in FGF2 in AC-100 treated bones, lysates were harvested over a comprehensive timecourse (30 min, 1 hr, 2 hr, 6 hr, 24 hr, 48 hr, 72 hr, day 4, day 5) and analysed for FGF2 and other bone anabolic factors using ELISA. […] Consistent with our previous findings AC-100 increased PGE2 in the conditioned media and TGFbeta and Fibronectin in both the conditioned media and bone lysate.
(§2) In addition, this response roughly correlated with expression of PGE-2 following AC-100 treatment (2B), TGF-β (2C) and Fibronectin (2D). Increases in PGE2 in the same cultures were observed from […].

PGE2 = PGE2 in murine calvarial organ culture (FIG. 2B); type: cell-based, mouse
Experimental: (§3) We have previously reported AC-100 treatment increases PGE2, TGFbeta and Fibronectin levels in the conditioned media from the murine calvarial organ culture. Histological evaluation of the bones indicated AC-100 increased the amount of new bone formation and numbers of osteoblasts.
as §1, §2

TGFbeta = TGFbeta in murine calvarial organ culture (FIG. 2C); type: cell-based, mouse
Experimental: as §3, §1, §2

Fibronectin = Fibronectin in murine calvarial organ culture (FIG. 2D); type: cell-based, mouse
Experimental: as §3, §1, §2

[3] = test system: murine calvarial organ culture; experiment: Histological evaluation of bones from murine calvarial organ culture; type: cell-based, mouse; settings: histological evaluation of the bones
Source text: as §3

BMP2 [4] = experiment: Synergy with BMP2 in vitro; type: cell-based; settings: combination with BMP2, in vitro
Source text: (§4) BMP2, a potent osteogenic agent is also a strong stimulator of angiognenesis.

BMP2 [5] = experiment: Synergy with BMP2 in vivo, ossicle formation
Source text: as §4

bone healing = experiment: Bone healing in diverse animal models; type: in vivo
Source text: Angiogenesis is a crucial part of bone healing.

[6] = conditioned media, murine calvarial organ culture, previously reported

Sequence: TDLQERGDNDISPFSGDGQPFKD [AC-100]
- FGF2 signal at 2 hr (FGF2 [1]; 2 hr): increased
- FGF2 signal 24 hr through day 3 (FGF2 [1]; 24 hr through day 3): the same as the control bones
- FGF2 signal at day 5 (FGF2 [1]; day 5, control signal significantly reduced): still strong
- FGF2 signal, overall course (FGF2 [1]; versus control bones): earlier and prolonged increase
- production of FGF-2 (FGF-2; AC-100 1 uM): increased
- production of FGF-2 (FGF-2; AC-100 10 uM): increased
- FGF2 in conditioned media (FGF2 [2]; ELISA, conditioned media): not detectable
- FGF2 in bone lysates (FGF2 [2]; ELISA, lysates, 30 min through day 5): potent increase
- production of FGF-2 over time (FIG. 2A) (FGF2 [2]; approximately 1 hr to 5 days): increased
- PGE2 in conditioned media (PGE2; ELISA, conditioned media): increased
- PGE2 levels (PGE2; [6]): increases
- PGE2 over time (FIG. 2B) (PGE2; same cultures, days 2-7): Increases
- TGFbeta in bone lysate (TGFbeta; ELISA, bone lysate): increased
- TGFbeta in conditioned media (TGFbeta; ELISA, conditioned media): increased
- TGFbeta levels (TGFbeta; [6]): increases
- Fibronectin in bone lysate (Fibronectin; ELISA, bone lysate): increased
- Fibronectin in conditioned media (Fibronectin; ELISA, conditioned media): increased
- Fibronectin levels (Fibronectin; [6]): increases
- amount of new bone formation [3]: increased
- numbers of osteoblasts [3]: increased
- activity with BMP2 in vitro (BMP2 [4]): synergistic activities
- osteons and blood vessels in ossicles (BMP2 [5]; BMP2 and AC-100 co-treatment): contain mature osteons with new blood vessels
- structure of ossicles formed (BMP2 [5]; BMP2 and AC-100 co-treatment versus BMP2 alone): more mature structure
- activity with BMP2 in vivo (BMP2 [5]; combination with BMP2, in vivo): synergistic activities
- healing (bone healing): earlier healing
- new bone formed (bone healing): increased amount and better quality of new bone
